This is an account of results in PubChem BioAssay (NCI).

The structures appear in SMILES notation.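 Five compound concentrations were applied to cells in 96-well plates for 48 hours; endpoints were derived by simple linear interpolation of the resulting dose-response curve. At the GI50, growth is halved. Definition used: TGI = concentration required for complete inhibition of growth.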 Where only a bound is given, the exact number is not on record here.

Some test systems named below: DLD-1 colon; HCT-116 colon; OVCAR-4 ovarian; XF 498 CNS; M19-MEL melanoma; SR leukemia; DMS 273 small cell lung; DMS 114 small cell lung; KM20L2 colon; SN12C renal; LXFL 529 NSCLC; HOP-18 NSCLC; A498 renal; TK-10 renal; SNB-78 CNS.
Holding throughout (test): NCI-60 cell line screen, 48 h

For `CCOC(=O)C(CC(C)C)NC(=O)C(N)Cc1ccc(N(CCCl)CCCl)cc1` (stereo not drawn), the TGI stood at 8.27 µM in the experiment with DLD-1 colon; 17.9 µM with HCT-116 colon; 3.1 µM in the experiment with OVCAR-4 ovarian; 3.87 µM in the experiment with XF 498 CNS; 4.57 µM with M19-MEL melanoma; 4.69 µM with SR leukemia. For the same compound, the TGI worked out at 13.2 µM in the experiment on DMS 273 small cell lung; 7.54 µM with DMS 114 small cell lung; 13.5 µM in the experiment with KM20L2 colon; 19.7 µM in the experiment with SN12C renal; 8.29 µM in the experiment on LXFL 529 NSCLC; 16.1 µM in the experiment on HOP-18 NSCLC. The TGI in the experiment with A498 renal came to 30.9 µM; in the experiment on TK-10 renal it was 25.3 µM.
For `Nc1c2ccccc2nc2nccnc12`, the TGI in the experiment with DLD-1 colon, in the experiment on HCT-116 colon, in the experiment with OVCAR-4 ovarian, in the experiment on SNB-78 CNS, in the experiment on XF 498 CNS and in the experiment with M19-MEL melanoma was over 100 µM throughout. Also, the TGI with SR leukemia, in the experiment on DMS 273 small cell lung, in the experiment with DMS 114 small cell lung, in the experiment on KM20L2 colon, in the experiment with SN12C renal and in the experiment with HOP-18 NSCLC was over 100 µM in each case. In addition, the TGI in the experiment on A498 renal and in the experiment with TK-10 renal was over 100 µM throughout.
For `COc1ccc(-c2cc(=O)c3cc4c(cc3[nH]2)OCO4)c(OC)c1`, the TGI in the experiment with DLD-1 colon was over 100 µM; in the experiment on HCT-116 colon, over 100 µM; with OVCAR-4 ovarian, over 100 µM; in the experiment on SNB-78 CNS, over 100 µM; with XF 498 CNS, 97.9 µM; in the experiment with M19-MEL melanoma it was over 100 µM. For the same compound, the TGI with SR leukemia is 74.2 µM; with DMS 273 small cell lung it was over 100 µM; with DMS 114 small cell lung, 87.3 µM; in the experiment with KM20L2 colon, over 100 µM; in the experiment with SN12C renal, over 100 µM; with LXFL 529 NSCLC, over 100 µM. The TGI in the experiment with HOP-18 NSCLC and in the experiment with TK-10 renal was over 100 µM in each case. For the same compound, the figures for the GI50 in the experiment on HCT-116 colon, with DMS 114 small cell lung and in the experiment with KM20L2 colon were 40.7 µM, 26.1 µM and 42.7 µM, respectively.
In the case of `CNc1cccc(-c2cc(=O)c3cc4c(cc3[nH]2)OCO4)c1`, the TGI in the experiment on DLD-1 colon is 0.969 µM; with HCT-116 colon, over 100 µM; with OVCAR-4 ovarian it was over 100 µM; in the experiment with SNB-78 CNS it was over 100 µM; in the experiment with XF 498 CNS it was over 100 µM; in the experiment on M19-MEL melanoma, over 100 µM. Further, the TGI is over 100 µM with SR leukemia; 16.9 µM with DMS 273 small cell lung; 7.84 µM in the experiment with DMS 114 small cell lung; over 42.8 µM in the experiment with SN12C renal; over 100 µM in the experiment on LXFL 529 NSCLC; over 100 µM in the experiment with HOP-18 NSCLC. In the experiment with TK-10 renal, this compound had a TGI of 77.5 µM.
Take `CCC1CN2CCc3cc(OC)c(OC)cc3C2CC1CC1c2cc(OC)c(OC)cc2CCN1C(=O)C(Cc1c[nH]c2ccccc12)NC(=O)OC(C)(C)C` (stereo not drawn): the TGI in the experiment with DLD-1 colon stood at 27.4 µM; in the experiment with HCT-116 colon, 5.78 µM; with OVCAR-4 ovarian, 3.63 µM; in the experiment on SNB-78 CNS, 40.5 µM; with XF 498 CNS it was 3.19 µM; in the experiment with M19-MEL melanoma it was 3.11 µM. In addition, the TGI in the experiment with SR leukemia stood at 13.8 µM; in the experiment with DMS 273 small cell lung, 19.1 µM; in the experiment with DMS 114 small cell lung, 3.06 µM; in the experiment with KM20L2 colon, 3.8 µM; in the experiment on SN12C renal, 8.7 µM; in the experiment with LXFL 529 NSCLC, 10.8 µM. Further, the TGI is 18.7 µM in the experiment on HOP-18 NSCLC, 17.8 µM in the experiment with A498 renal and 16 µM in the experiment with TK-10 renal.
